Measured values published in patent US7718385B2, “Bioactivation of alkylating agents for cancer treatment” (priority 2003, dated 2010).

Tests used:
RPMI-8226 = conditions: RPMI-8226, Leukemia, cited from earlier work
T-47D = conditions: cited from earlier work
NCI/ADR-RES = conditions: cited from earlier work
HS 578T = conditions: cited from earlier work
MDA-MB 231/ATCC = conditions: cited from earlier work
SF-295 = conditions: SF-295, Central Nervous System, cited from earlier work
A549/ATCC = conditions: cited from earlier work
recombinant rat AOR = recombinant rat AOR (Rattus norvegicus, UniProt P97584, Q160G/Q263G/Q264G/Q276G)
Experimental: Varied concentrations of illudin M were added to a 200 μl 0.5× phosphate buffered saline (PBS) solution containing 115 ng of AOR and 43.4 nmoles NADPH, and incubated for 1 minute at 37° C. Reactions were then extracted with ethyl acetate containing piperine (internal standard), dried under vacuum, resuspended in HPLC buffer A (60% acetonitrile: 40% water), and injected into a Hewlett-Packard 1050 HPLC system equipped with a Luna C18 column (Phenomenex Inc.). Metabolites were separated using buffer A at a flow rate of 1 ml/min and quantified using diode array detection at 205 nm and previously reported extinction coefficients (Tanaka, et al., 1990). Vmax and Km were calculated using the HYPER program.
Rates were quantified from metabolite peak areas using reported extinction coefficients (Tanaka, et al., 1990; McMorris, et al., 1999).

NCI-H460 = conditions: NCI-H460, Non-Small Cell Lung; cited from earlier work
MDA-MB 435 = conditions: MDA-MB 435, Breast, cited from earlier work
MALME-3M = conditions: cited from earlier work
recombinant AOR = target: T1, recombinant AOR (Rattus norvegicus, UniProt P97584, Q160G/Q263G/Q264G/Q276G); assay: LC/MS/MS of enzymatic and nonenzymatic GSH adducts; type: biochemical; conditions: incubations with AOR, GSH and NADPH, 1 h, 37° C.
T1 construct: made in house
Experimental: High Performance Liquid Chromatography with Tandem Mass Spectrometry (LC/MS/MS) of GSA Adducts. […] These reactions were incubated at 37° C. for 1 h. Controls lacking NAFPH were performed. Reactions were stopped and deproteinized with addition of 400 μl of ice-cold acetonitrile, spun at 3500×g for 10 min at 4° C., and the supernatants were evaporated to dryness under vacuum. Residual GSH and NADPH cofactors were removed using an Oasis C18 sample prep column (Waters Chromatography). Adducts were eluted with methanol, evaporated to dryness under vacuum, resuspended in […] of 0.1% acetic acid, and detected using liquid chromatography electrospray ionization tandem mass spectrometry performed in the positive ion mode. […] A flow rate of 0.1 ml/min and gradient of 0% buffer D (70% acetic acid (0.1%):30% acetonitrile) to 100% buffer E (20% acetic acid (0.1%):80% acetonitrile) over 30 min were used to resolve the compounds. Adducts were detected by monitoring for selected molecular ions or characteristic molecular fragments after MS/MS. Molecular fragments were obtained with 35% relative collusion energy.
Measuring GSH adduction is a commonly used technique for estimating covalent protein binding, and thus cytotoxicity, of a drug (Baillie and Kassahun, 2001). The nucleophilic thiol moiety of GSH effectively scavenges electrophilic molecules and its large size and charge prevent it from entering the active site of most enzymes. […] Daughter ions of adducts, which represent the loss of water (−18 m/z) or […] (−129 m/z), were common and monitored for in these experiments following MS/MS.
Enzymatic reduction occurred in incubations containing recombinant AOR, NADPH, and GSH, while companion nonenzymatic reductions lacked NADPH. […] However the NE irofulven-GSH adduct (FIG. 5B) was detected only after monitoring for a daughter ion (M+—H2)=536 m/z) and was 42-fold less abundant than the E adduct. […] Contrary to findings with irofulven, a great deal of NE illudin M-GSH adduct was detected in NADPH-deficient incubations.

SF-539 = conditions: SF-539, Central Nervous System, cited from earlier work
HT29 = conditions: HT29, Colon, cited from earlier work
K-562 = conditions: K-562, Leukemia, cited from earlier work

Sequence of recombinant rat AOR (P97584 whole entry Q160G/Q263G/Q264G/Q276G): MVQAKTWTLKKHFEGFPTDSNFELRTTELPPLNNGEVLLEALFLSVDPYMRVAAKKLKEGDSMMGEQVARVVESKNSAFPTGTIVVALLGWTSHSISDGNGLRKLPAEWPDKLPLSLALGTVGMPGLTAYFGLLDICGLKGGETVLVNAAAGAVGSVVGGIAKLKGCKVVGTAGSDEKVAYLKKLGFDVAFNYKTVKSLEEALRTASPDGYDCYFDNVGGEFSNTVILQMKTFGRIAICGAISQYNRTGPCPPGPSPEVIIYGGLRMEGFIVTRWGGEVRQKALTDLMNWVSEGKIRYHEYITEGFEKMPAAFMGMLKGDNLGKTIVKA
T1 sequence (P97584 whole entry Q160G/Q263G/Q264G/Q276G): as above

Compound: CC1=C(CO)C2=C(C)C3(CC3)[C@@](C)(O)C(=O)C2=C1 [Irofulven, 6-hydroxymethylacylfulvene]
- GI50 (RPMI-8226): 31600 nM
- TGI (RPMI-8226): 7.94E−05
- log(GI50) (RPMI-8226): −4.5
- log(TGI) (RPMI-8226): −4.1
- CC50 (RPMI-8226; read-out: LC50): ≥ 100000 nM
- GI50 (T-47D; Breast): 200 nM
- TGI (T-47D; Breast): 2.51E−06
- log(GI50) (T-47D; Breast): −6.7
- log(TGI) (T-47D; Breast): −5.6
- CC50 (T-47D; read-out: LC50, Breast): ≥ 100000 nM
- GI50 (NCI/ADR-RES; Breast): 251 nM
- TGI (NCI/ADR-RES; Breast): 7.94E−07
- log(GI50) (NCI/ADR-RES; Breast): −6.6
- log(LC50) (NCI/ADR-RES; Breast): −5.3
- log(TGI) (NCI/ADR-RES; Breast): −6.1
- CC50 (NCI/ADR-RES; read-out: LC50, Breast): 5010 nM
- GI50 (HS 578T; Breast): 316 nM
- TGI (HS 578T; Breast): 1.58E−06
- log(GI50) (HS 578T; Breast): −6.5
- log(LC50) (HS 578T; Breast): −4.7
- log(TGI) (HS 578T; Breast): −5.8
- CC50 (HS 578T; read-out: LC50, Breast): 20000 nM
- GI50 (MDA-MB 231/ATCC; Breast): 316 nM
- TGI (MDA-MB 231/ATCC; Breast): 1.26E−06
- log(GI50) (MDA-MB 231/ATCC; Breast): −6.5
- log(LC50) (MDA-MB 231/ATCC; Breast): −4.1
- log(TGI) (MDA-MB 231/ATCC; Breast): −5.9
- CC50 (MDA-MB 231/ATCC; read-out: LC50, Breast): 79400 nM
- GI50 (SF-295): 316 nM
- TGI (SF-295): 6.31E−06
- log(GI50) (SF-295): −6.5
- log(LC50) (SF-295): −5
- log(TGI) (SF-295): −5.2
- CC50 (SF-295; read-out: LC50): 10000 nM
- GI50 (A549/ATCC; Non-Small Cell Lung): 126 nM
- TGI (A549/ATCC; Non-Small Cell Lung): 1.58E−06
- log(GI50) (A549/ATCC; Non-Small Cell Lung): −6.9
- log(TGI) (A549/ATCC; Non-Small Cell Lung): −5.8
- CC50 (A549/ATCC; read-out: LC50, Non-Small Cell Lung): ≥ 100000 nM
- Vmax (recombinant rat AOR): 275 nmol/min/mg
- decrease in the rate of metabolism by AOR (recombinant rat AOR; relative to the illudins): 100 fold
- GI50 (NCI-H460): 50.1 nM
- TGI (NCI-H460): 2.51E−07
- log(GI50) (NCI-H460): −7.3
- log(TGI) (NCI-H460): −6.6
- GI50 (MDA-MB 435): 1580 nM
- TGI (MDA-MB 435): 6.31E−06
- log(GI50) (MDA-MB 435): −5.8
- log(LC50) (MDA-MB 435): −4.4
- log(TGI) (MDA-MB 435): −5.2
- CC50 (MDA-MB 435; read-out: LC50): 39800 nM
- GI50 (MALME-3M; Melanoma): 200 nM
- TGI (MALME-3M; Melanoma): 5.01E−07
- log(GI50) (MALME-3M; Melanoma): −6.7
- log(LC50) (MALME-3M; Melanoma): −5.6
- log(TGI) (MALME-3M; Melanoma): −6.3
- CC50 (MALME-3M; read-out: LC50, Melanoma): 2510 nM
- abundance of E (enzymatic) GSH adduct over NE (nonenzymatic) adduct (recombinant AOR): 42 fold
- GI50 (SF-539): 158 nM
- TGI (SF-539): 5.01E−07
- log(GI50) (SF-539): −6.8
- log(LC50) (SF-539): −6.2
- log(TGI) (SF-539): −6.3
- CC50 (SF-539; read-out: LC50): 631 nM
- GI50 (HT29): 251 nM
- TGI (HT29): 1.26E−06
- log(GI50) (HT29): −6.6
- log(TGI) (HT29): −5.9
- CC50 (HT29; read-out: LC50): ≥ 100000 nM
- GI50 (K-562): 3160 nM
- TGI (K-562): 1.00E−04
- log(GI50) (K-562): −5.5
- log(TGI) (K-562): −4
- CC50 (K-562; read-out: LC50): ≥ 100000 nM
